Like-named read-outs stand apart in the source and are kept apart here. Values belong to the compound of their own block, whether it stands above or below them.
Columns and labels:
[1] = In vivo stability in mouse urine at 1 h p.i. (radio-HPLC); parameters: species or system C57BL/6J mice
Procedure: All animal experiments were conducted in according to the guidelines established by Canadian Council on Animal Care and approved by Animal Ethics Committee of the University of British Columbia. Mice were housed under pathogen-free conditions and kept on twelve hours light and twelve hours dark cycle in the Animal Research Centre, BC Cancer Research Centre, Vancouver, Canada. C57BL/6J mice were anesthetized by inhalation with 2% isoflurane in 2.0 L/min of oxygen, and approximately 4-6 MBq of [^68Ga]Ga-CCZ01099 or [^68Ga]Ga-CCZ01048 was injected intravenously. The mice were allowed to recover and roam freely in their cages. At 1 h post-injection (p.i.), the mice were euthanized by CO2 inhalation and their urine was collected and analyzed on HPLC for metabolite using the conditions described above. In vivo urine stability of [^68Ga]Ga-CCZ01099 and [^68Ga]Ga-CCZ01048 were 34.0±10.4% and ≥98.0% (n≥3), respectively.
The in vivo stability tests in mouse urine were performed as described in Example 1. […] With systematic reduction in the number of N-methylations for the αMSH analogues, a decrease in in vivo stability was observed.

[2] = Biodistribution of 177Lu-labeled αMSH analogues in mice bearing B16F10 mouse melanoma; type: in vivo, C57BL/6J mice; settings: mouse, iv, total radioactivity, C57BL/6J mice, B16F10 melanoma
Procedure: (§1) The B16-F10 mouse melanoma cells were cultured and inoculated in mice as described in Example 1.
(§2) For biodistribution studies, approximately 1-2 MBq of ^177Lu-labeled αMSH analogues via tail vein under anesthesia. At 1, 4, 24, and 120 h p.i., the mice were euthanized by CO2 inhalation. Organs/tissues were harvested and the radioactivity was measured as described in Example 1.

B16F10 mouse melanoma = experiment: as above; type: in vivo, C57BL/6J mice
Procedure: as §1, §2

[3] = 120 h p.i., C57BL/6J mice, B16F10 melanoma

In vivo urine stability, intact tracer [1]: 65.8 ± 2.9%
Compound: CCCC[C@H](NC(=O)CN1CCC(NC(=O)CN2CCN(CC(=O)O)CCN(CC(=O)O)CCN(CC(=O)O)CC2)CC1)C(=O)N[C@H]1CC(=O)NCCCC[C@@H](C(N)=O)N(C)C(=O)[C@H](Cc2c[nH]c3ccccc23)N(C)C(=O)[C@H](CCCNC(=N)N)NC(=O)[C@@H](Cc2ccccc2)NC(=O)[C@H](Cc2c[nH]cn2)NC1=O [[^68Ga]Ga-CCZ01105, metal not drawn]

tissue uptake at 1 h ([2]; male, seminal glands, 1 h p.i., read-out: Biodistribution, Seminal glands): 0.16 ± 0.03 %ID/g | tissue uptake at 1 h ([2]; male, testes, 1 h p.i., read-out: Biodistribution, Testes): 0.27 ± 0.04 %ID/g | tissue uptake at 4 h ([2]; male, testes, 4 h p.i., read-out: Biodistribution, Testes): 0.16 ± 0.02 %ID/g | tissue uptake at 1 h ([2]; adrenal glands, 1 h p.i., read-out: Biodistribution, Adrenal glands): 0.38 ± 0.38 %ID/g | tissue uptake at 1 h ([2]; bone, 1 h p.i., read-out: Biodistribution, Bone): 0.19 ± 0.01 %ID/g | tissue uptake at 1 h ([2]; heart, 1 h p.i., read-out: Biodistribution, Heart): 0.18 ± 0.02 %ID/g | tissue uptake at 1 h ([2]; intestine, 1 h p.i., read-out: Biodistribution, Intestine): 0.33 ± 0.06 %ID/g | tissue uptake at 4 h ([2]; intestine, 4 h p.i., read-out: Biodistribution, Intestine): 0.49 ± 0.46 %ID/g | tissue uptake at 24 h ([2]; intestine, 24 h p.i., read-out: Biodistribution, Intestine): 0.27 ± 0.23 %ID/g | tissue uptake at 1 h ([2]; kidneys, 1 h p.i., read-out: Biodistribution, Kidneys): 5.36 ± 0.32 %ID/g | tissue uptake at 4 h ([2]; kidneys, 4 h p.i., read-out: Biodistribution, Kidneys): 4.89 ± 1.06 %ID/g | tissue uptake at 24 h ([2]; kidneys, 24 h p.i., read-out: Biodistribution, Kidneys): 1.78 ± 0.32 %ID/g | tissue uptake at 120 h ([2]; kidneys, 120 h p.i., read-out: Biodistribution, Kidneys): 0.36 ± 0.09 %ID/g | tissue uptake at 1 h ([2]; liver, 1 h p.i., read-out: Biodistribution, Liver): 0.54 ± 0.08 %ID/g | tissue uptake at 4 h ([2]; liver, 4 h p.i., read-out: Biodistribution, Liver): 0.48 ± 0.1 %ID/g | tissue uptake at 24 h ([2]; liver, 24 h p.i., read-out: Biodistribution, Liver): 0.34 ± 0.05 %ID/g | tissue uptake at 120 h ([2]; liver, 120 h p.i., read-out: Biodistribution, Liver): 0.16 ± 0.04 %ID/g | tissue uptake at 1 h ([2]; lungs, 1 h p.i., read-out: Biodistribution, Lungs): 0.73 ± 0.4 %ID/g | tissue uptake at 1 h ([2]; spleen, 1 h p.i., read-out: Biodistribution, Spleen): 0.29 ± 0.02 %ID/g | tissue uptake at 4 h ([2]; spleen, 4 h p.i., read-out: Biodistribution, Spleen): 0.22 ± 0.06 %ID/g | tissue uptake at 1 h ([2]; stomach, 1 h p.i., read-out: Biodistribution, Stomach): 0.59 ± 0.16 %ID/g | tissue uptake at 4 h ([2]; stomach, 4 h p.i., read-out: Biodistribution, Stomach): 0.56 ± 0.08 %ID/g | tissue uptake at 1 h ([2]; thyroid, 1 h p.i., read-out: Biodistribution, Thyroid): 2.57 ± 0.62 %ID/g | tissue uptake at 4 h ([2]; thyroid, 4 h p.i., read-out: Biodistribution, Thyroid): 2.16 ± 0.4 %ID/g | tissue uptake at 24 h ([2]; thyroid, 24 h p.i., read-out: Biodistribution, Thyroid): 1.24 ± 0.32 %ID/g | tissue to tissue ratio at 1 h ([2]; tumour/blood, 1 h p.i., read-out: Tumour/blood): 32.4 ± 7.58 | tissue to tissue ratio at 4 h ([2]; tumour/blood, 4 h p.i., read-out: Tumour/blood): 206 ± 73.7 | tissue to tissue ratio at 24 h ([2]; tumour/blood, 24 h p.i., read-out: Tumour/blood): 530 ± 45.1 | tissue to tissue ratio at 120 h ([2]; tumour/blood, 120 h p.i., read-out: Tumour/blood): 233 ± 57.8 | tissue to tissue ratio at 1 h ([2]; tumour/kidney, 1 h p.i., read-out: Tumour/kidney): 3.04 ± 0.63 | tissue to tissue ratio at 4 h ([2]; tumour/kidney, 4 h p.i., read-out: Tumour/kidney): 3.65 ± 1.48 | tissue to tissue ratio at 24 h ([2]; tumour/kidney, 24 h p.i., read-out: Tumour/kidney): 2.25 ± 0.15 | tissue to tissue ratio at 120 h ([2]; tumour/kidney, 120 h p.i., read-out: Tumour/kidney): 1.14 ± 0.65 | tissue to tissue ratio at 1 h ([2]; tumour/muscle, 1 h p.i., read-out: Tumour/muscle): 126 ± 34.1 | tissue to tissue ratio at 4 h ([2]; tumour/muscle, 4 h p.i., read-out: Tumour/muscle): 561 ± 208 | tissue to tissue ratio at 24 h ([2]; tumour/muscle, 24 h p.i., read-out: Tumour/muscle): 239 ± 108 | tissue to tissue ratio at 120 h ([2]; tumour/muscle, 120 h p.i., read-out: Tumour/muscle): 80.9 ± 28.1 | excreta dose per gram or mL at 1 h ([2]; urine, 1 h p.i.): 110 ± 81.9 %ID/g | excreta dose per gram or mL at 4 h ([2]; urine, 4 h p.i.): 13.8 ± 10.2 %ID/g | excreta dose per gram or mL at 24 h ([2]; urine, 24 h p.i.): 1.99 ± 1.39 %ID/g | excreta dose per gram or mL at 120 h ([2]; urine, 120 h p.i.): 0.22 ± 0.05 %ID/g | Biodistribution, B16F10 tumour (B16F10 mouse melanoma; 1 h p.i., C57BL/6J mice, B16F10 melanoma): 16.3 ± 3.75 % ID/g | Biodistribution, B16F10 tumour (B16F10 mouse melanoma; 4 h p.i., C57BL/6J mice, B16F10 melanoma): 16.7 ± 3.86 % ID/g | Biodistribution, B16F10 tumour (B16F10 mouse melanoma; 24 h p.i., C57BL/6J mice, B16F10 melanoma): 4.39 ± 1.36 % ID/g | Biodistribution, B16F10 tumour (B16F10 mouse melanoma; [3]): 0.41 ± 0.21 % ID/g | Biodistribution, Blood (B16F10 mouse melanoma; [3]): 0.00 ± 0.00 % ID/g
Compound: CCCC[C@H](NC(=O)CN1CCC(NC(=O)CN2CCN(CC(=O)O)CCN(CC(=O)O)CCN(CC(=O)O)CC2)CC1)C(=O)N[C@H]1CC(=O)NCCCC[C@@H](C(N)=O)NC(=O)[C@H](Cc2c[nH]c3ccccc23)NC(=O)[C@H](CCCNC(=N)N)NC(=O)[C@@H](Cc2ccccc2)NC(=O)[C@H](Cc2c[nH]cn2)NC1=O [^177Lu-labeled CCZ01048, metal not drawn, reference compound]

In vivo urine stability, intact tracer [1]: 82.5 ± 1.8%
Compound: CCCC[C@H](NC(=O)CN1CCC(NC(=O)CN2CCN(CC(=O)O)CCN(CC(=O)O)CCN(CC(=O)O)CC2)CC1)C(=O)N[C@H]1CC(=O)NCCCC[C@@H](C(N)=O)N(C)C(=O)[C@H](Cc2c[nH]c3ccccc23)NC(=O)[C@H](CCCNC(=N)N)N(C)C(=O)[C@@H](Cc2ccccc2)NC(=O)[C@H](Cc2c[nH]cn2)NC1=O [[^68Ga]Ga-CCZ01106] [metal not drawn]

In vivo urine stability, intact tracer [1]: 41.4 ± 3.9%
Compound: CCCC[C@H](NC(=O)CN1CCC(NC(=O)CN2CCN(CC(=O)O)CCN(CC(=O)O)CCN(CC(=O)O)CC2)CC1)C(=O)N[C@H]1CC(=O)NCCCC[C@@H](C(N)=O)NC(=O)[C@H](Cc2c[nH]c3ccccc23)NC(=O)[C@H](CCCNC(=N)N)N(C)C(=O)[C@@H](Cc2ccccc2)NC(=O)[C@H](Cc2c[nH]cn2)NC1=O [[^68Ga]Ga-CCZ01114, metal not drawn]

Second part, the compound before the results:

Compound: CCCC[C@H](NC(=O)CN1CCC(NC(=O)CN2CCN(CC(=O)O)CCN(CC(=O)O)CCN(CC(=O)O)CC2)CC1)C(=O)N[C@H]1CC(=O)NCCCC[C@@H](C(N)=O)N(C)C(=O)[C@H](Cc2c[nH]c3ccccc23)N(C)C(=O)[C@H](CCCNC(=N)N)N(C)C(=O)[C@@H](Cc2ccccc2)NC(=O)[C@H](Cc2c[nH]cn2)NC1=O [[^68Ga]Ga-CCZ01103, metal not drawn]
In vivo urine stability, intact tracer [1]: 92.6 ± 1.6%

Compound: CCCC[C@H](NC(=O)CN1CCC(NC(=O)CN2CCN(CC(=O)O)CCN(CC(=O)O)CCN(CC(=O)O)CC2)CC1)C(=O)N[C@H]1CC(=O)NCCCC[C@@H](C(N)=O)NC(=O)[C@H](Cc2c[nH]c3ccccc23)N(C)C(=O)[C@H](CCCNC(=N)N)N(C)C(=O)[C@@H](Cc2ccccc2)NC(=O)[C@H](Cc2c[nH]cn2)NC1=O [[^68Ga]Ga-CCZ01104, metal not drawn]
In vivo urine stability, intact tracer [1]: 92.5 ± 2.1%

Compound: CCCC[C@H](NC(=O)CN1CCC(NC(=O)[C@H](CCCCNC(=O)CN2CCN(CC(=O)O)CCN(CC(=O)O)CCN(CC(=O)O)CC2)NC(=O)[C@H](CCC(=O)O)NC(=O)CCCc2ccc(I)cc2)CC1)C(=O)N[C@H]1CC(=O)NCCCC[C@@H](C(N)=O)N(C)C(=O)[C@H](Cc2c[nH]c3ccccc23)NC(=O)[C@H](CCCNC(=N)N)N(C)C(=O)[C@@H](Cc2ccccc2)NC(=O)[C@H](Cc2c[nH]cn2)NC1=O [CCZ01118, [4-(p-iodophenyl)butanoyl]-Glu-Lys(DOTA)-Pip-Nle-cyclo[Asp-His-D-Phe-N-Me-Arg-Trp-N-Me-Lys]-NH2]
Improvement in tumour uptake retention (B16F10 mouse melanoma; among six αMSH analogues): showed the most improvement in tumour uptake retention
